Assays:
Assay type in all cases: in vivo
[1] = tested on: C57BL/6 (H2Kb), female mice; assay: antigen-specific CD4 T cell response, intracellular cytokine staining of PBLs after vaccination; conditions: liposome-based MPL and QS-21-containing formulation; vs control formulation; dose dependent; FIG. 4
Procedure: (§1) Formulation of the compounds for a comparison study requires taking into account the different molecular weights of the core and lipidated molecules, (e.g. 45 and 4.5 μg of the lipidated compound L3 corresponds to approximately to 15 and 1.5 μg of the corresponding core compound, “L3 core”), allowing for the side by side comparison of the corresponding groups in the study. Higher doses of L3 (200 μg) and of L3 core (150 μg) are also tested. In one such study formulations summarized and described below (table 1) are used to vaccinate 6-8 week old C57BL/6 (H2Kb), female mice (10/group). The mice receive two injections 14 days apart and are bled during weeks 1, 3 and 4 (for precise bleed days see FIG. 1). The mice are vaccinated intramuscularly. A heterologous prime/boost using recombinant adenovirus coding for the SIV-p27 protein and adjuvanted p27 are used as control groups, the adenovirus is injected at a dose of 5×10^8 VP. The study design is represented in FIG. 1. […]
(§2) The induction of antigen-specific CD8 and CD4 responses is assessed by measuring intracellular cytokines 7 days after the second injection. […] The secretion of cytokines is blocked by Brefeldin A and the presence of 3 cytokines (IFNγ, TNFα and IL2) is evaluated by flow cytometry after intracellular staining with appropriate antibodies.

[2] = tested on: C57BL/6 (H2Kb), female mice; assay: p27-specific CD8 response, intracellular cytokine staining of PBLs after vaccination; conditions: 7 days after the second immunization; co-administered with MPL and QS-21 formulations; vs control formulation without TLR7/8L; intramuscular; FIG. 2
Procedure: as §1, §2

[3] = tested on: C57BL/6 (H2Kb), female mice; assay: serum cytokine response after first injection; conditions: sera of mice 3 and 24 hrs after the first injection
Procedure: Formulation of the compounds for a comparison study requires taking into account the different molecular weights of the core and lipidated molecules, (e.g. 45 and 4.5 μg of the lipidated compound L3 corresponds to approximately to 15 and 1.5 μg of the corresponding core compound, “L3 core”), allowing for the side by side comparison of the corresponding groups in the study. Higher doses of L3 (200 μg) and of L3 core (150 μg) are also tested. In one such study formulations summarized and described below (table 1) are used to vaccinate 6-8 week old C57BL/6 (H2Kb), female mice (10/group). The mice receive two injections 14 days apart and are bled during weeks 1, 3 and 4 (for precise bleed days see FIG. 1). The mice are vaccinated intramuscularly. A heterologous prime/boost using recombinant adenovirus coding for the SIV-p27 protein and adjuvanted p27 are used as control groups, the adenovirus is injected at a dose of 5×10^8 VP. The study design is represented in FIG. 1.
Additional investigation illustrates the ability of lipidated TLR7/8 compounds to induce innate chemokines and pro-inflammatory cytokines among which type I IFN is known to be required for the programming of naïve CD8-T-cell (survival, differentiate and memory development). These cytokines are measured in the sera of mice 3 and 24 hrs after the first injection (FIGS. 5 and 6).

CCCCCCCCCCCCCCCC(=O)OC[C@H](COP(=O)(O)OCCn1c(COCC)nc2c(N)nc3ccccc3c21)OC(=O)CCCCCCCCCCCCCCC [Compound L3, 4-Amino-1-[2-(1,2-dipalmitoyl-sn-glycero-3-phospho)ethyl]-2-ethoxymethyl-1H-imidazo[4,5-c]quinoline]
p27-specific CD4 frequency [1]: increased
p27-specific CD8 frequency [2]: clearly increased
IL-6 in serum ([3]; added to QS21 and MPL): enhanced
TNFα in serum ([3]; added to QS21 and MPL): enhanced
IL-12p70 production in serum ([3]; with QS21 and MPL): Low IL-12p70 production, close to background level
Level of INFγ in serum ([3]; with QS21 and MPL): increased at low dose
IFNα in serum ([3]; with QS21 and MPL, FIGS. 5 and 6): in a dose-dependent manner and at higher level than for its core counterpart

Reference: patent US8946421B2, “Lipidated imidazoquinoline derivatives” (GlaxoSmithKline Biologicals S.A., priority 2008, dated 2015)
